Data as given in patent publication US20240158446A1, “CYCLIC COMPOUND HAVING SELECTIVE INHIBITORY ACTION ON KRAS OVER HRAS AND NRAS” (CHUGAI SEIYAKU KABUSHIKI KAISHA, priority 2021, published 2024).
Read-outs that look alike come from different tables or passages of the source. Where a SMILES comes first, the peptide text is derived from it. Bridges are numbered along the chain shown (N, C = ends). [ ]: non-standard residue; d: D form. hPhe(3,5-F2-4-CF3) = N[C@@H](CCc1cc(F)c(C(F)(F)F)c(F)c1)C(=O)O; hPhe(3-Cl-4-CF3) = N[C@@H](CCc1ccc(C(F)(F)F)c(Cl)c1)C(=O)O; NPrPhe(4-CF3) = CCCN[C@@H](Cc1ccc(C(F)(F)F)cc1)C(=O)O; NMeGly(cPent) = CN[C@H](C(=O)O)C1CCCC1; Nva(3-Et) = CCC(CC)[C@H](N)C(=O)O; NMeD = CN[C@@H](CC(=O)O)C(=O)O; NMeL = CN[C@@H](CC(C)C)C(=O)O; Ac5c = NC1(C(=O)O)CCCC1; Aze = O=C(O)[C@@H]1CCN1; Ac4c = NC1(C(=O)O)CCC1; Sar = CNCC(=O)O

Columns and labels:
[1] = molecular target: GDP-bound NRAS wild-type protein (Homo sapiens, UniProt P01111); assay: Binding to NRAS by surface plasmon resonance (SPR), Single Cycle Kinetics
Chain of GDP-bound NRAS wild-type protein (P01111 whole entry): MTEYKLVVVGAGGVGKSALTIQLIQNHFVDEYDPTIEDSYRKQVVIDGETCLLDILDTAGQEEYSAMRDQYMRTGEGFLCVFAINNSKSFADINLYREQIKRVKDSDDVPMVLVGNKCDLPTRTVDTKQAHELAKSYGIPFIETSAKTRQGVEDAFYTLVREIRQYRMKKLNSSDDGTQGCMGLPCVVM

[2] = molecular target: GDP-bound HRAS wild-type protein (Homo sapiens, UniProt P01112); assay: Binding to HRAS by surface plasmon resonance (SPR), Single Cycle Kinetics
Chain of GDP-bound HRAS wild-type protein (P01112 whole entry): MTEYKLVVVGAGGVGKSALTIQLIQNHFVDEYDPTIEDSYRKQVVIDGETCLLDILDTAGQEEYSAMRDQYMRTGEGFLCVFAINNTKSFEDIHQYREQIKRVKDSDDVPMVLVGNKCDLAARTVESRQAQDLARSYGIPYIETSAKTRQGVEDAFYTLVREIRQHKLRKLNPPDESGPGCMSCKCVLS

[3] = molecular target: GDP-bound KRAS wild-type protein (Homo sapiens, UniProt P01116); assay: Binding to KRAS by surface plasmon resonance (SPR), Single Cycle Kinetics; details: GDP-bound KRAS wild-type protein, read-out: KRAS KD
Chain of GDP-bound KRAS wild-type protein (P01116 whole entry): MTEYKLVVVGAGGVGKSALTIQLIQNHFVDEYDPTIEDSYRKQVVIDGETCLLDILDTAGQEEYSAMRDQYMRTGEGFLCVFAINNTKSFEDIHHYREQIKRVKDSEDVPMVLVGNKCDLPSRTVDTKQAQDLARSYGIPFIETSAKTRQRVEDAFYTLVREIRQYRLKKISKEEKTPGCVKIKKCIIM

[4] = SPR, GDP-bound NRAS wild-type protein vs GDP-bound KRAS wild-type protein
[5] = SPR, GDP-bound HRAS wild-type protein vs GDP-bound KRAS wild-type protein
[6] = SPR Single Cycle Kinetics, 1:1 binding model

Kd [3, 6] [nM] | Kd ([3]; SPR, Single Cycle Kinetics) [nM] | SMILES | NRAS/KRAS (ratio of KD value with respect to NRAS to KD value with respect to KRAS) [1, 4] | HRAS/KRAS (ratio of KD value with respect to HRAS to KD value with respect to KRAS) [2, 5] | NRAS/KRAS (ratio of KD value with respect to GDP-bound NRAS wild-type protein to KD value with respect to KRAS) ([1]; SPR KD ratio NRAS/KRAS, class symbols) | HRAS/KRAS (ratio of KD value with respect to GDP-bound HRAS wild-type protein to KD value with respect to KRAS) ([2]; SPR KD ratio HRAS/KRAS, class symbols) | NRAS/KRAS (ratio of KD value for NRAS to KD value for KRAS) [1, 4] | HRAS/KRAS (ratio of KD value for HRAS to KD value for KRAS) [2, 5]
0.36 | – | CCCN1C(=O)CN(C)C(=O)CN(C)C(=O)[C@H](C(CC)CC)NC(=O)[C@H](CC(C)C)N(C)C(=O)C[C@@H](C(=O)N(C)C)N(C)C(=O)[C@H](C2CCCC2)N(C)C(=O)C2(CCCC2)NC(=O)[C@@H]2CCCN2C(=O)[C@H](CCc2cc(F)c(C(F)(F)F)c(F)c2)NC(=O)CN(C)C(=O)[C@@H]1Cc1ccc(C(F)(F)F)cc1 [PP0747] ([NMeL][Nva(3-Et)][Sar][Sar][NPrPhe(4-CF3)][Sar][hPhe(3,5-F2-4-CF3)]P[Ac5c][NMeGly(cPent)][NMeD]-NMe2; lactam N-11) | B (a compound having 3 or more and less than 10 is denoted as B) | C (A compound having a KD ratio of 0.1 or more and less than 3 is denoted as C) | – | – | – | –
– | 0.28 | CCO[C@@H]1C[C@H]2C(=O)NC3(CCC3)C(=O)N(C)[C@@H](C3CCCC3)C(=O)N(C)[C@H](C(=O)N(C)C)CC(=O)N(C)[C@@H](CC)C(=O)N[C@@H]([C@@H](C)CC)C(=O)N3CC[C@H]3C(=O)N(C)[C@H]3C/C=C\CCN(C3=O)[C@@H](Cc3ccc(C(F)(F)F)cc3)C(=O)N(C)CC(=O)N[C@@H](CCc3cc(F)c(C(F)(F)F)c(F)c3)C(=O)N2C1 [PP0984] | – | – | – | – | A (a compound having 10 or more and less than 20 is denoted as A) | A (a compound having 10 or more and less than 20 is denoted as A)
0.034 | – | CC[C@H](C)[C@@H]1NC(=O)[C@H](CC)N(C)C(=O)C[C@@H](C(=O)N(C)C)N(C)C(=O)[C@H](C2CCCC2)N(C)C(=O)C2(CCC2)NC(=O)[C@@H]2CCCCN2C(=O)[C@H](CCc2cc(F)c(C(F)(F)F)c(F)c2)NC(=O)CN(C)C(=O)[C@H](Cc2ccc(C(F)(F)F)cc2)N2CCCC[C@@H](C2=O)N(C)C(=O)CN(C)C1=O [PP0658] | C (A compound having a KD ratio of 0.1 or more and less than 3 is denoted as C) | B (a compound having 3 or more and less than 10 is denoted as B) | – | – | – | –
34 | – | CC[C@H](C)[C@@H]1NC(=O)[C@H](CC(C)C)N(C)C(=O)C[C@@H](C(=O)N2CCOCC2)N(C)C(=O)[C@H](C2CCCC2)N(C)C(=O)C2(CCCC2)NC(=O)[C@@H]2CCCN2C(=O)[C@H](CCc2cc(F)c(C(F)(F)F)c(F)c2)NC(=O)CN(C)C(=O)[C@H](Cc2ccc(C(F)(F)F)cc2)N2CCCCC[C@@H](C2=O)N(C)C(=O)CN(CC)C1=O [PP0483] | B (a compound having 3 or more and less than 10 is denoted as B) | B (a compound having 3 or more and less than 10 is denoted as B) | – | – | – | –
0.26 | – | CCCN1C(=O)CN(C)C(=O)[C@@H]2CCN2C(=O)[C@H]([C@@H](C)CC)NC(=O)[C@H](CC(C)C)N(C)C(=O)C[C@@H](C(=O)N(C)C)N(C)C(=O)[C@H](C2CCCC2)N(C)C(=O)C2(CCC2)NC(=O)[C@@H]2CCCN2C(=O)[C@H](CCc2ccc(C(F)(F)F)c(Cl)c2)NC(=O)CN(C)C(=O)[C@@H]1Cc1ccc(C(F)(F)F)cc1 [PP0430] ([NMeL]I[Aze][Sar][NPrPhe(4-CF3)][Sar][hPhe(3-Cl-4-CF3)]P[Ac4c][NMeGly(cPent)][NMeD]-NMe2; lactam N-11) | B (a compound having 3 or more and less than 10 is denoted as B) | B (a compound having 3 or more and less than 10 is denoted as B) | – | – | – | –
0.29 | – | CC[C@H](C)[C@@H]1NC(=O)[C@H](CC)N(C)C(=O)C[C@@H](C(=O)N(C)C)N(CC)C(=O)[C@H](C2CCCC2)N(C)C(=O)C2(CCC2)NC(=O)[C@@H]2CCN2C(=O)[C@H](CCc2cc(F)c(C(F)(F)F)c(F)c2)NC(=O)CN(C)C(=O)[C@H](Cc2ccc(C(F)(F)F)cc2)N2CCCC[C@@H](C2=O)N(C)C(=O)CN(C)C1=O [PP0660] | B (a compound having 3 or more and less than 10 is denoted as B) | B (a compound having 3 or more and less than 10 is denoted as B) | – | – | – | –

SMILES | Kd [3, 6] [nM] | Kd ([3]; SPR, Single Cycle Kinetics) [nM] | NRAS/KRAS (ratio of KD value with respect to NRAS to KD value with respect to KRAS) [1, 4] | HRAS/KRAS (ratio of KD value with respect to HRAS to KD value with respect to KRAS) [2, 5] | NRAS/KRAS (ratio of KD value with respect to GDP-bound NRAS wild-type protein to KD value with respect to KRAS) ([1]; SPR KD ratio NRAS/KRAS, class symbols) | HRAS/KRAS (ratio of KD value with respect to GDP-bound HRAS wild-type protein to KD value with respect to KRAS) ([2]; SPR KD ratio HRAS/KRAS, class symbols) | NRAS/KRAS (ratio of KD value for NRAS to KD value for KRAS) [1, 4] | HRAS/KRAS (ratio of KD value for HRAS to KD value for KRAS) [2, 5]
CCO[C@@H]1C[C@H]2C(=O)NC3(CC(C)(C)C3)C(=O)N(C)[C@@H](C3CCCC3)C(=O)N(C)[C@H](C(=O)N3CCCCC3)CC(=O)N(C)[C@H]3CCC/C=C/c4ccc(cc4)C[C@@H](C(=O)N(C)CC(=O)N[C@@H](CCc4ccc(Cl)c(Cl)c4)C(=O)N2C1)N1CC/C=C\C[C@@H](C1=O)N(C)C(=O)CN(C)C(=O)[C@H]([C@@H](C)CC)NC3=O [PP2578] | 0.27 | – | – | – | AA (a compound having 20 or more is denoted as AA) | A (a compound having 10 or more and less than 20 is denoted as A) | – | –
